According to paper PMC6381024, “Probing Anti-inflammatory Properties Independent of NF-κB Through Conformational Constraint of Peptide-Based Interleukin-1 Receptor Biased Ligands” (Frontiers in Chemistry, 2019):

Legend:
JNK = experiment: IL-1β-induced JNK phosphorylation, Western blot in RAW Blue cells; assay type: cell-based; design: key to Western Blot JNK (heatmap grade of inhibition): 0: No effect; No effect 01234 Maximum inhibition/efficacy; No effect 01234 Maximum inhibition/efficacy; No effect 01234 Maximum inhibition/efficacy; 4: Maximum inhibition/efficacy; details: for Western Blot JNK (heatmap grade of inhibition): RAW Blue cells, peptide 10^-6 M or Kineret 1.0 mg/mL 30 min, then IL-1β 100 ng/mL 15 min
Experimental: (§1) RAW Blue cells (Invivogen) were grown under standard conditions (37°C, 5% CO2) and maintained under passage number 15. Cells were equilibrated with 1, 5, or 6 (10^−6M) or Kineret (1.0 mg/mL) for 30 min, after which time they were exposed to IL-1β (100 ng/mL) for 15 min. Cells were harvested and lysed on ice for 30 min using a radioimmunoprecipitation assay buffer (Cell Signaling) supplemented with 1 mM phenylmethylsulfonyl fluoride (PMSF) and cOmplete™ EDTA-free protease inhibitor cocktail (Roche, Mannheim, Germany, prepared according to the manufacturer's instructions). Protein concentrations were determined using a Bradford protein assay (Bio-Rad) on 96-well plates with a microplate reader (EnVision Multilabel reader) measuring OD at […]. Bovine serum albumin serial dilutions were used to generate a standard curve. Lysates were then mixed with 4X reducing sample buffer (Bio-Rad).
(§2) Lysates were loaded (30 μg protein per well) in a 5% acrylamide stacking gel, and samples were electrophoresed in a 12% acrylamide resolving gel for 1.5 h at 120 V, followed by a 1 h transfer onto polyvinylidene difluoride (PDVF) membranes at 100 V. Membranes were blocked and incubated with 1:1,000 dilution of primary antibody and 1:20,000 dilution of secondary antibodies according to the manufacturer's instructions. Antibodies used were for phospho-p38 MAPK (Cell Signaling, #9211), p38 MAPK (Cell Signaling, #9212), SAPK/JNK (Cell Signaling, #9252), phospho-SAPK/JNK (Cell Signaling, #9251), ROCK2 (Thermo Fisher Scientific PA5-21131), phospho-ROCK2 (Thermo Fisher Scientific PA5-34895), and goat anti-rabbit conjugated to horseradish peroxidase (Abcam, ab6721). Membranes were imaged using an Amersham Imager 600 (GE Healthcare) using Clarity Western ECL Substrate (Bio-Rad). The intensity of protein bands was quantified using ImageJ and standardized using total (phosphorylated + non-phosphorylated) protein content. Data are representative of three independent experiments.
(§3) Figure 7 The effects of peptides 1, 5, and 6 on IL-1β-induced phosphorylation of JNK, ROCK2, and p38. Graphical representations of band density analysis of Western Blots, sorted into columns based on protein of interest (JNK, ROCK2, or p38) and rows by peptide configuration [(3R-) or (3S)]. RAW-blue cells were pretreated with peptides 1, 5, 6, Kineret, or vehicle for 30 min and then stimulated with IL-1β for 15 min. Images of representative Western Blots can be found in the Supplementary Figure 1. Results shown are the average of 3 independent experiments: ^*p < 0.05, ^**p < 0.01, ^***p < 0.001, ^****p < 0.0001 compared to group treated only with IL-1β. Treatment groups that are not labeled with asterisks are statistically non-significant compared to group treated only with IL-1β.

p38 MAPK = experiment: IL-1β-induced p38 MAPK phosphorylation, Western blot in RAW Blue cells; assay type: cell-based; design: key to Western Blot p38 (heatmap grade of inhibition): 0: No effect; No effect 01234 Maximum inhibition/efficacy; No effect 01234 Maximum inhibition/efficacy; No effect 01234 Maximum inhibition/efficacy; 4: Maximum inhibition/efficacy; details: for Western Blot p38 (heatmap grade of inhibition): RAW Blue cells, peptide 10^-6 M or Kineret 1.0 mg/mL 30 min, then IL-1β 100 ng/mL 15 min; for Inhibition of IL-1β-induced p38 phosphorylation: RAW-blue cells, 10^-6 M, 30 min, then IL-1β 15 min
Experimental: as §1, §2, §3

ROCK2 = experiment: IL-1β-induced ROCK2 phosphorylation, Western blot in RAW Blue cells; assay type: cell-based; design: key to Western Blot ROCK2 (heatmap grade of inhibition): 0: No effect; No effect 01234 Maximum inhibition/efficacy; No effect 01234 Maximum inhibition/efficacy; No effect 01234 Maximum inhibition/efficacy; 4: Maximum inhibition/efficacy; details: for Western Blot ROCK2 (heatmap grade of inhibition): RAW Blue cells, peptide 10^-6 M or Kineret 1.0 mg/mL 30 min, then IL-1β 100 ng/mL 15 min
Experimental: as §1, §2, §3

IL-6 = experiment: qPCR of IL-1β-induced IL-6 expression in HEK-Blue IL-33/IL-1β cells; assay type: cell-based, human; design: key to qPCR IL-6 (heatmap grade of inhibition): 0: No effect; No effect 01234 Maximum inhibition/efficacy; No effect 01234 Maximum inhibition/efficacy; No effect 01234 Maximum inhibition/efficacy; 4: Maximum inhibition/efficacy; details: for qPCR IL-6 (heatmap grade of inhibition): HEK-Blue cells, peptide 10^-6 M or Kineret 1.0 mg/mL 30 min, then IL-1β 100 ng/mL 4 h (legend: overnight); for Suppression of IL-6 transcription: HEK blue cells, 10^-6 M pre-treatment, IL-1β stimulation
Experimental: HEK-Blue IL-33/IL-1β cells were purchased from InvivoGen (San Diego, CA) and used at passages under 15. HEK-Blue cells were cultured in DMEM growth medium supplemented with 10% serum, 50 U/mL penicillin, […] streptomycin, […] zeocin, and […] hygromycin. Cells were grown in regular conditions (37°C, 5% CO2). Cells were serum starved overnight and treated with 100 ng/mL IL-1β for 4 h. Cells were pre-incubated for 30 min with peptides 1, 5, or 6 (10^−6M) or Kineret (1.0 mg/mL) prior to the experiments to reach equilibrium (n = 4 each treatment). Cells were harvested and incubated for 5 min in RIBOzol (AMRESCO). RNA was extracted according to manufacturer's protocol and RNA concentration and integrity were measured with a NanoDrop 1,000 spectrophotometer. A total of 500 ng RNA was used to synthetize cDNA using iScript Reverse Transcription SuperMix (Bio-Rad, Hercules, CA). Quantitative gene expression analysis was performed on Stratagene MXPro3000 (Stratagene) with SYBR Green Master Mix (Bio-Rad). Gene expression levels were normalized to 18S universal primer (Ambion Life Technology, Burlington ON, Canada). Genes analyzed include IL1β, IL6, and PTGHS2 [Prostaglandin H synthetase 2 or cyclooxygenase-2 (COX-2)]. Data are representative of 3 experiments (each with n = 4 per treatment group).
Figure 8 The effects of peptides 1, 5, and 6 on the expression of pro-inflammatory genes. HEK-Blue cells were pre-treated with peptides 1, 5, and 6 as above and stimulated with IL-1β overnight. qPCR was performed on cell lysates using 18S rRNA as internal control. Graphs are sorted in columns by gene of interest (COX-2, IL-1β, or IL-6) and rows by peptide configuration [(3R) or (3S)]. Results are representative of an average of 3 independent experiments (each with n = 4 per treatment group) and are expressed as a fold-change of the non-stimulated control: ^*p < 0.05, ^**p < 0.01, ^***p < 0.001, ^****p < 0.0001 compared to group treated only with IL-1β. Treatment groups that are not labeled with asterisks are statistically non-significant compared to group treated only with IL-1β.

[1] = RAW-blue cells, 10^-6 M, 30 min, then IL-1β 15 min

Substance | Western Blot JNK (heatmap grade of inhibition) (JNK) | Western Blot p38 (heatmap grade of inhibition) (p38 MAPK) | Western Blot ROCK2 (heatmap grade of inhibition) (ROCK2) | qPCR IL-6 (heatmap grade of inhibition) (IL-6) | Inhibition of IL-1β-induced p38 phosphorylation (p38 MAPK) | Suppression of IL-6 transcription (IL-6) | Inhibition of IL-1β-induced JNK phosphorylation (JNK; [1]) | Inhibition of IL-1β-induced ROCK2 phosphorylation (ROCK2; [1])
H-D-Arg-D-Tyr-(3R,4R)-Hgl-(S)-Val-D-Glu-D-Leu-D-Ala-NH2 [[(3R,4R)-Hgl^3-(S)-Val^4]-1] | 1 | 3 | 4 | 4 |  |  |  | 
H-D-Arg-D-Tyr-(3R,4R)-Hgl-D-Val-D-Glu-D-Leu-D-Ala-NH2 [[(3R,4R)-Hgl^3]-1] | 0 | 0 | 4 | 4 | inactive |  |  | 
H-D-Arg-D-Tyr-(3R,4S)-Hgl-(S)-Val-D-Glu-D-Leu-D-Ala-NH2 [[(3R,4S)-Hgl^3-(S)-Val^4]-1] | 2 | 2 | 2 | 2 |  |  |  | 
H-D-Arg-D-Tyr-(3R,4S)-Hgl-D-Val-D-Glu-D-Leu-D-Ala-NH2 [[(3R,4S)-Hgl^3]-1] | 4 | 4 | 4 | 4 | inhibited most effectively |  |  | 
H-D-Arg-D-Tyr-(3S,4R)-Hgl-D-Val-D-Glu-D-Leu-D-Ala-NH2 [[(3S,4R)-Hgl^3]-1] | 3 | 3 | 3 | 4 |  |  |  | 
H-D-Arg-D-Tyr-(R)-Agl-(S)-Val-D-Glu-D-Leu-D-Ala-NH2 [[(3R)-Agl^3-(S)-Val^4]-1] | 0 | 4 | 2 | 1 | inhibited most effectively | ability to suppress the transcription of all three genes was lost |  | 
H-D-Arg-D-Tyr-(R)-Agl-D-Val-D-Glu-D-Leu-D-Ala-NH2 [[(3R)-Agl^3]-1] | 4 | 0 | 0 | 3 | inactive |  |  | 
H-D-Arg-D-Tyr-(S)-Agl-(S)-Val-D-Glu-D-Leu-D-Ala-NH2 [[(3S)-Agl^3-(S)-Val^4]-1] | 0 | 2 | 3 | 1 |  | ability to suppress the transcription of all three genes was lost |  | 
H-D-Arg-D-Tyr-(S)-Agl-D-Val-D-Glu-D-Leu-D-Ala-NH2 [[(3S)-Agl^3]-1] | 4 | 0 | 0 | 2 | inactive |  |  | 
H-D-Arg-D-Tyr-D-Thr-D-Val-D-Glu-D-Leu-D-Ala-NH2 [Peptide 1] | 4 | 4 | 4 | 4 | inhibited the effects of all three kinases | strong suppression of transcription of all three genes | inhibited the effects of all three kinases | inhibited the effects of all three kinases
Kineret: FDA-approved recombinant IL-1 receptor antagonist | 4 | 4 | 4 | 4 |  |  |  | 
